# Entries after “also recorded” stand apart in the source; their conditions may differ.
# Experiments:
# [1] = biological target: ERβ ligand binding domain (Homo sapiens, UniProt Q92731); experiment: Competitive [3H]-estradiol binding assay, ER-β (Example 21)
# Description: (§1) ER binding affinity was determined via one of the following methods:
# (§2) Briefly, the incubation mixture was filtered through a high affinity protein binding filter, and washed several times to remove any unbound radioactivity. The filter plate was air dried and sealed on the bottom.
# (§3) Nonspecific binding was subtracted from total binding to yield specific binding.
# [2] = system: Rat Aortic Smooth Muscle Cells (RASMC); experiment: RASMC cell proliferation assay (WST-1); format: cell-based; conditions: for EC50: Rattus norvegicus, inhibitory effect sigmoid Emax model, read-out: EC50 for inhibition of RASMC proliferation; for Proliferation of RASMC: concentration between 10-30 μM
# Description: EC50 values were calculated using WinNonLin 5.0.1 using the inhibitory effect sigmoid Emax model.
# [3] = system: receptors for progesterone, mineralocorticoids, androgens, glucocorticoids, FXR, PXR, LXR, RXR, PPAR-α, PPAR-γ and ERR-α, ERR-β and ERR-γ; experiment: Transactivation assays for cross reactivity with 13 other NHR; format: cell-based; conditions: concentrations as high as 10 μM; data not shown
# [4] = system: Ishikawa endometrial cells; experiment: Ishikawa growth assay (ALP); format: cell-based; conditions: for Concentration at which proliferation of Ishikawa cells was induced: highest concentration tested
# Description: Ishikawa cells were plated at 15,000 cells/well in 24 well plates in DME:F12 (1:1)+5% csFBS w/o phenol red. The cells were maintained in this medium at 37° C. for 3 days. Medium was changed immediately prior to drug treatment for an additional 72 hrs. After 72 hrs, the cells were fixed with formalin and the amount of alkaline phosphatase (ALP) measured by para-nitrophenyl phosphate method.
# This effect is one potential concern in the development of ER-α SERMs.
# [5] = system: SHP promoter; experiment: SHP promoter-luciferase assay in HEK-293 cells; format: cell-based; conditions: transfected with FXR and ER-β
# Description: FIG. 12 depicts the effect of ER-β ligand on PPAR-γ function through ligand binding domain (LBD). (A). HEK-293 cells were transfected with 0.25 μg PPRE-LUC, 5 ng CMV-renilla LUC and the indicated receptors (PPAR-γ and ER-β for the left panel and PPAR-α and ER-β for the right panel). The cells were treated 24 hrs after transfection with the indicated ligands and harvested 48 hrs after transfection and firefly luciferase activity was measured and normalized to renilla luciferase. (B). H475 in ER-β LBD is important for its function. H475 in ER-β LBD was mutated to alanine (A) using a site directed mutagenesis kit. Transactivation assay was performed as described in panel A in HEK-293 cells with a titration of ER-β ligands in wild type (WT) or ER-β H475A. (C). […] HEK-293 cells were transfected with 0.25 μg PPRE-LUC, 5 ng CMV-renilla LUC and 50 ng of the indicated receptors (PPAR-γ or PPAR-γ and wild type ER-β or PPAR-γ and ER-β H475A). The cells were treated 24 hrs after transfection with the indicated ligands and harvested 48 hrs after transfection and firefly luciferase activity was measured and normalized to renilla luciferase. (D). […] HepG2 cells were transfected with 0.25 μg PPRE-LUC, 5 ng CMV-renilla LUC, 0.5 μg PGC-1 or vector backbone and 100 ng of the indicated receptors (PPAR-γ or PPAR-γ and wild type ER-β or PPAR-γ and ER-β H475A for top panels and PPAR-α or PPAR-α and ER-β for bottom panel). The cells were treated 24 hrs after transfection with the indicated ligands and harvested 48 hrs after transfection and firefly luciferase activity was measured and normalized to renilla luciferase. (E). SHP-1 is an ER-β specific target gene. HEK-293 cells were transfected with 0.25 μg SHP-LUC, 5 ng CMV-renilla LUC and 50 ng of the indicated receptors (FXR and ER-α for the left panel and FXR and ER-β for the right panel). The cells were treated 24 hrs after transfection with the indicated ligands and harvested 48 hrs after transfection and firefly luciferase activity was measured and normalized to renilla luciferase. PPAR—peroxisome proliferator and activated receptor; ER—estrogen receptor; H—histidine; A—alanine; RLU—relative luciferase units; Tro—troglitazone; PGC-1—PPAR-γ coactivator; SHP—small heterodimer partner; FXR—farsenoid X receptor.
# Human estrogen receptors (ER-α and ER-β) were cloned from prostate cDNA into a pCR3.1 plasmid vector backbone. PGC-1 was cloned into mammalian two hybrid vector pACT. ER-β H475 was mutated to alanine using site-directed mutagenesis. Sequencing was performed to determine the absence of any non specific mutations. SHP promoter (−572 to +10) (26) was cloned into pGL3 basic LUC reporter vector and human FXR was cloned into pCR3.1. […]
# [6] = system: high fat diet (HFD) induced obesity model; experiment: High fat diet induced obesity, prevention studies; format: in vivo, C57BL6 male mice; conditions: for Prevention of the increase in body fat (MRI) / Prevention of body weight increase caused by the high fat diet: Study 2, 30 mg/kg/day s.c.; for Lean mass (MRI): Study 2, high fat diet; for Fat mass (MRI): Study 2, versus high fat diet and vehicle
# Description: The mice were treated for 12 weeks.
# [7] = biological target: ER-α (Rattus norvegicus (Rat), UniProt P06211); format: cell-based; conditions: for Estradiol activity at 100 nM of NRBA, ER-α: 100 nM compound compared to 1 nM estradiol
# Method in brief: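 COS or 293 cells in phenol red-free medium with charcoal-stripped FBS, transfected with a 2×ERE firefly luciferase reporter, CMV-Renilla control and rat-cloned receptor. Compounds, estrogen or DHT added 24 h post transfection, alone or combined; firefly and Renilla luciferase read 48 h after transfection.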
# [8] = biological target: ER-β (Rattus norvegicus (Rat), UniProt Q62986); experiment: ER-β transactivation (ERE-LUC) in COS or 293 cells; format: cell-based; conditions: for activation at 0.1 µM: HEK293, 48 h, read-out: Estradiol activity at 100 nM of NRBA, ER-β, 100 nM compound compared to 1 nM estradiol
# Chain of ER-β (Q62986 whole entry, the tested form may be a part): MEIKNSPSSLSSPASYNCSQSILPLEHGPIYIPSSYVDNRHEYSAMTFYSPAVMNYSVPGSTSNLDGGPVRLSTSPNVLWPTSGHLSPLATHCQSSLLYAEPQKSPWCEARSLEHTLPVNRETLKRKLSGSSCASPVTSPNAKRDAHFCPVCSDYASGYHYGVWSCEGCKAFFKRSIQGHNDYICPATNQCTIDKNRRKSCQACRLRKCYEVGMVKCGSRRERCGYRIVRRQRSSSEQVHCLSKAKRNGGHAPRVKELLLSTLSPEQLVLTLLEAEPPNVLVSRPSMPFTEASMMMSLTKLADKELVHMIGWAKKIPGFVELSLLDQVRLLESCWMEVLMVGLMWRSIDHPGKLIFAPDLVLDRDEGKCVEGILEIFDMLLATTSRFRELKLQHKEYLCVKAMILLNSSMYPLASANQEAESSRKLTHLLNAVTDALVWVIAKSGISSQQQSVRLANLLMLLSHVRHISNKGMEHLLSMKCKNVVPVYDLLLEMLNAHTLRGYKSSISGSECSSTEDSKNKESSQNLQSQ
# [9] = biological target: ERα ligand binding domain (Homo sapiens, UniProt P03372); experiment: Competitive [3H]-estradiol binding assay, ER-α (Example 21)
# Chain of ERα ligand binding domain (P03372 whole entry, looked up, the tested form may be a part): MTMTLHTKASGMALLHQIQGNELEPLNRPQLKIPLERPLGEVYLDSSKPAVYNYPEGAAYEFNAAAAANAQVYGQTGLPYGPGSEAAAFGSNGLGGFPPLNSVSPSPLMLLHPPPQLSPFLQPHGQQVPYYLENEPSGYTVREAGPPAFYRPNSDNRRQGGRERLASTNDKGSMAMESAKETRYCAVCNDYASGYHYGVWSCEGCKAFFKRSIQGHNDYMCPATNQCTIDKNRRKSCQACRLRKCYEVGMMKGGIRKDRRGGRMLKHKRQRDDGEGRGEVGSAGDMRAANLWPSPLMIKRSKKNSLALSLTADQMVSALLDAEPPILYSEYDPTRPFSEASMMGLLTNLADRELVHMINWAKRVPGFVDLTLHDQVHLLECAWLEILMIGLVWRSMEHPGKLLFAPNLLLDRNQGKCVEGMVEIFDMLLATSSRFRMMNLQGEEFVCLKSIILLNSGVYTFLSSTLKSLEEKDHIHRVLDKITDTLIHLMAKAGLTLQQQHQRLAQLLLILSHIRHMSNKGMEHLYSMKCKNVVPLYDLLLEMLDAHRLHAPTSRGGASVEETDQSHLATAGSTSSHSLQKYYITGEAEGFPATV
# Description: as §1, §2, §3
# [10] = high fat diet, 30 mg/kg/day s.c., 12 weeks
# [11] = high fat diet, 30 mg/kg/day s.c.
# Chain of ERβ ligand binding domain (Q92731 whole entry, looked up, the tested form may be a part): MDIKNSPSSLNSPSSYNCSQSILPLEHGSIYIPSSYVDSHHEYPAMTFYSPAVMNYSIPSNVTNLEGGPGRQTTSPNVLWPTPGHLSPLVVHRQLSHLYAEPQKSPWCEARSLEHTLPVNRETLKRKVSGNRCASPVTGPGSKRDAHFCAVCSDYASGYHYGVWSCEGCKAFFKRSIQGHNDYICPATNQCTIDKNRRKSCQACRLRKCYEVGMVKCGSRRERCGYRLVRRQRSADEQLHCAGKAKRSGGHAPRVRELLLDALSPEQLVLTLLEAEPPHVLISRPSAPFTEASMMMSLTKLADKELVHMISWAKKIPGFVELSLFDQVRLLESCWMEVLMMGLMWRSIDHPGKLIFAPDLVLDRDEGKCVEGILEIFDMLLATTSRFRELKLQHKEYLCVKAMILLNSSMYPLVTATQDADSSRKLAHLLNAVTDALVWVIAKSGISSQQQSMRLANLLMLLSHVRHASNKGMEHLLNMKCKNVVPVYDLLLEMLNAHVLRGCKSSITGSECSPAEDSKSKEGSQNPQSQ
Structure (SMILES),EC50 [2] [µM],Proliferation of RASMC [2],Cross reactivity with 13 other NHR [3],Ishikawa cell proliferation [4],Concentration at which proliferation of Ishikawa cells was induced [4] [µM],SHP promoter activity [5],Prevention of the increase in body fat (MRI) [6],Prevention of body weight increase caused by the high fat diet ([6]; 12 weeks),Lean mass (MRI) [6],Fat mass (MRI) [6],"Body weight versus normal diet controls [6, 10]","Gastrocnemius muscle weight ([6]; high fat diet, 12 weeks)","Serum testosterone levels ([6]; high fat diet, 12 weeks)","Testes weights ([6]; high fat diet, 12 weeks)","White adipose tissue (WAT) weight ([6]; high fat diet, 12 weeks)","Estradiol activity at 100 nM of NRBA, ER-α [7] [%]",activation at 0.1 µM [8] [%],further results
"O=c1c2c(O)cc(O)cc2c(Br)cn1-c1ccc(O)cc1 [12u, 4-bromo-6,8-dihydroxy-2-(4-hydroxyphenyl)isoquinolin-1(2H)-one]",9.56,inhibited the proliferation of RASMC in a dose-dependent manner,did not cross react,weakly induced Ishikawa cell proliferation,1,neither of the ligands activated SHP,more than 50%,more than 50%,increased muscle mass; also recorded: increased the lean mass,reduced fat mass; also recorded: significant reduction in fat mass,statistically indistinguishable from the normal diet controls,increased gastrocnemius muscle weight,did not affect the serum testosterone levels; also recorded: not altered,not altered,prevented the increase in the WAT weight; also recorded: decreased WAT weight,62,85,"inhibition at 0.1 µM ([1]; read-out: Percent Inhibition of [3H]-Estradiol Binding to ER-β): 96.7%; Classification as ER-α agonist [7]: ER-α agonists; ER-β agonist activity [8]: ER-β agonist activity; inhibition at 0.1 µM ([9]; 100 nM of compound, read-out: Percent Inhibition of [3H]-Estradiol Binding to ER-α): 61.3%"
"N#Cc1cn(-c2ccc(O)cc2)c(=O)c2c(O)cc(O)cc12 [14m, 6,8-dihydroxy-2-(4-hydroxyphenyl)-1-oxo-1,2-dihydroisoquinoline-4-carbonitrile]",7.89,inhibited the proliferation of RASMC in a dose-dependent manner,did not cross react,weakly induced Ishikawa cell proliferation,1,neither of the ligands activated SHP,more than 50%,more than 50%,increased muscle mass; also recorded: increased the lean mass,reduced fat mass; also recorded: significant reduction in fat mass,statistically indistinguishable from control mice; also recorded: statistically indistinguishable from the normal diet controls,increased gastrocnemius muscle weight,did not affect the serum testosterone levels; also recorded: not altered,not altered,prevented the increase in the WAT weight; also recorded: significantly reduced; also recorded: decreased WAT weight,49,74.5,"Ki ([1]; read-out: ER-β binding constant (Ki)): 0.007 µM; Accumulation of fat in liver (oil red staining) ([6]; high fat diet): attenuated the accumulation of lipid droplets in the liver; also recorded: completely prevented the accumulation of fat in the liver; Serum cholesterol increase ([6]; high fat diet): significantly reversed; Serum leptin increase ([6]; high fat diet): significantly reversed; Serum macrophage inflammatory protein-1β (MIP-1β) ([6]; high fat diet): undetectable levels; Bone mineral content (BMC, DEXA) [6, 11]: prevented the loss in BMC; Feed consumption / total caloric intake [6, 11]: did not affect total caloric intake; Body fat (DEXA) [6, 10]: suppressing fat mass formation; Reduction in body weight compared to high fat diet and vehicle [6, 10]: greater than 85%; Weight gained more than normal diet-fed controls [6, 10]: 5%; Blood glucose levels in glucose tolerance test ([6]; high fat diet, 150 mg glucose orally): not statistically different from the normal diet controls; Serum follicle stimulating hormone (FSH) levels ([6]; high fat diet, 12 weeks): did not affect serum testosterone and follicle stimulating hormone (FSH) levels; Ki ([9]; read-out: ER-α binding constant (Ki)): 0.094 µM"

# From patent publication US9604931B2, “Nuclear receptor binding agents” (GTx, Inc., priority 2007, dated 2017)
